The values below come from patent US20120225061A1, “TETRASUBSTITUTED CYCLOHEXYL COMPOUNDS AS KINASE INHIBITORS” (priority 2011, published 2012).

Molecules are shown by their SMILES.

One assay has as its target Pim1 kinase (Homo sapiens, UniProt P11309). Description: Pim1 AlphaScreen assay (high ATP).
For a further assay, the target named is Pim2 kinase (Homo sapiens, UniProt Q9P1W9). Description: Pim2 AlphaScreen assay (high ATP).
The target of a further assay is Pim3 kinase (Homo sapiens, UniProt Q86V86). Description: Pim3 AlphaScreen assay (high ATP).
For assay [1], the system named is KMS11 (human myeloma cell line). As to the kind of experiment: Cell proliferation assay (CellTiter-Glo) in KMS11 cells. It counts as cell-based. The following applies: KMS-11, 72 h, Table 5, 3 days, read-out: KMS11-luc EC50. Here is the method:
KMS11 (human myeloma cell line), were cultured in IMDM supplemented with 10% FBS, sodium pyruvate and antibiotics. Cells were plated in the same medium at a density of 2000 cells per well into 96 well tissue culture plates, with outside wells vacant, on the day of assay.
Test compounds supplied in DMSO were diluted into DMSO at 500 times the desired final concentrations before dilution into culture media to 2 times final concentrations.
After 3 days plates were equilibrated to room temperature and equal volume of CellTiter-Glow Reagent (Promega) was added to the culture wells. The plates were agitated briefly and luminescent signal was measured with luminometer.

Pim1 kinase, sequence (P11309 whole entry): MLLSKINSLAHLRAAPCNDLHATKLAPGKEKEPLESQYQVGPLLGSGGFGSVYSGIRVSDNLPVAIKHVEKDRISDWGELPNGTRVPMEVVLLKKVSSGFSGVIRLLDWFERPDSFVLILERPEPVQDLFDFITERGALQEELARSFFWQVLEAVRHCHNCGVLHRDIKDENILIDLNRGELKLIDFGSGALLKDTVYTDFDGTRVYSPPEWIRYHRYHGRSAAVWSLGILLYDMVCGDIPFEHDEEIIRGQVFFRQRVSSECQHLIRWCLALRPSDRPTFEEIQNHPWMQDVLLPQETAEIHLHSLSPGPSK
Pim2 kinase, sequence (Q9P1W9 whole entry): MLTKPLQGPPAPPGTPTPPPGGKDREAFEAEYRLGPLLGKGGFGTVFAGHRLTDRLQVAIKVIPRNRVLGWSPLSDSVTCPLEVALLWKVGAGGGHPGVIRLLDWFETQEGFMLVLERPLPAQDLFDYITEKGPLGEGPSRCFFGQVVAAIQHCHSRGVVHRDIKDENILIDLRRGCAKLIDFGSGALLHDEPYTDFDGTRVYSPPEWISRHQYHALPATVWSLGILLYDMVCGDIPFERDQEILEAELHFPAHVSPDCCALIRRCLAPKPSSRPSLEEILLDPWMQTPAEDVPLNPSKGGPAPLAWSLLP

As for `COc1cc(F)c(-c2nc(C(=O)Nc3cnccc3[C@H]3C[C@@H](N)[C@](C)(O)[C@@H](C)C3)ccc2F)c(F)c1` [Example 15, N-(4-((1R,3R,4R,5S)-3-amino-4-hydroxy-4,5-dimethylcyclohexyl)pyridin-3-yl)-6-(2,6-difluoro-4-methoxyphenyl)-5-fluoropicolinamide], the IC50 amounted to 0.08 nM at Pim1 kinase, 6 nM against Pim2 kinase and 1.04 nM against Pim3 kinase.
With `C[C@H]1C[C@@H](c2ccncc2NC(=O)c2nc(-c3cccc(OC(F)F)n3)ccc2N)C[C@@H](O)[C@]1(C)O` [Example 123, 5-amino-6′-(difluoromethoxy)-N-(4-((1R,3R,4R,5S)-3,4-dihydroxy-4,5-dimethylcyclohexyl)pyridin-3-yl)-2,2′-bipyridine-6-carboxamide], the IC50 on Pim1 kinase amounted to 35.2 nM; on Pim2 kinase it was 20200 nM; on Pim3 kinase, 454 nM.
Regarding `C[C@@H]1C[C@H](c2ccncc2NC(=O)c2nc(-c3c(F)cccc3F)c(F)cc2N)C[C@H](O)[C@]1(O)CF` [Example 24, 3-amino-6-(2,6-difluorophenyl)-5-fluoro-N-(4-((1S,3S,4S,5R)-4-(fluoromethyl)-3,4-dihydroxy-5-methylcyclohexyl)pyridin-3-yl) picolinamide], the IC50 was found to be 22.1 nM at Pim1 kinase, 4940 nM at Pim2 kinase and 786 nM against Pim3 kinase.
For `C[C@H]1C[C@@H](c2ccncc2NC(=O)c2ccc(F)c(-c3c(F)cc(C4COC4)cc3F)n2)C[C@@H](N)[C@]1(C)O` [Example 63, N-(4-((1R,3R,4R,5S)-3-amino-4-hydroxy-4,5-dimethylcyclohexyl)pyridin-3-yl)-6-(2,6-difluoro-4-(oxetan-3-yl)phenyl)-5-fluoropicolinamide], the EC50 in assay [1] is 84 nM. This compound registered an IC50 against Pim2 kinase of 5.73 nM.
On to `CC[C@]1(O)[C@H](C)C[C@H](c2ccncc2NC(=O)c2ccc(F)c(-c3c(F)cccc3F)n2)C[C@@H]1N` [Example 12, N-(4-((1S,3S,4S,5R)-3-amino-4-ethyl-4-hydroxy-5-methylcyclohexyl)pyridin-3-yl)-6-(2,6-difluorophenyl)-5-fluoropicolinamide], for which the IC50 was found to be 26.2 nM against Pim1 kinase, 1440 nM against Pim2 kinase and 303 nM at Pim3 kinase.
For `C[C@@H]1C[C@H](c2ccncc2NC(=O)c2nc(-c3c(F)cccc3F)ccc2N)C[C@H](O)[C@]1(O)CF` [Example 17, 3-amino-6-(2,6-difluorophenyl)-N-(4-((1S,3S,4S,5R)-4-(fluoromethyl)-3,4-dihydroxy-5-methylcyclohexyl)pyridin-3-yl) picolinamide], the figures for the concentration for half-maximal inhibition (IC50) against Pim1 kinase, at Pim2 kinase and at Pim3 kinase were 28.4 nM, 4650 nM and 646 nM, respectively.
In the same order, the values of `C[C@H]1C[C@@H](c2ccncc2NC(=O)c2nc(-c3c(F)cccc3F)c(F)cc2N)C[C@@H](O)[C@@]1(O)CF` [Example 23, 3-amino-6-(2,6-difluorophenyl)-5-fluoro-N-(4-((1R,3R,4R,5S)-4-(fluoromethyl)-3,4-dihydroxy-5-methylcyclohexyl)pyridin-3-yl) picolinamide] are 0.58 nM, 28.6 nM and 10.1 nM.
`C[C@H]1C[C@@H](c2ccncc2NC(=O)c2nc(-c3c(F)cccc3F)sc2N)C[C@@H](N)[C@]1(C)O` [Example 68, 5-amino-N-(4-((1R,3R,4R,5S)-3-amino-4-hydroxy-4,5-dimethylcyclohexyl)pyridin-3-yl)-2-(2,6-difluorophenyl)thiazole-4-carboxamide]: in assay [1], the EC50 turned out to be 24 nM. In addition, the midpoint of inhibition against Pim2 kinase, the IC50, lay at 3.02 nM.
Regarding `C[C@H]1C[C@@H](c2ccncc2NC(=O)c2ccc(F)c(-c3c(F)cc(C4(O)CCOCC4)cc3F)n2)C[C@@H](O)[C@]1(C)O` [Example 110, 6-(2,6-difluoro-4-(4-hydroxytetrahydro-2H-pyran-4-yl)phenyl)-N-(4-((1R,3R,4R,5S)-3,4-dihydroxy-4,5-dimethylcyclohexyl)pyridin-3-yl)-5-fluoropicolinamide], the EC50 in assay [1] is 322 nM.
In the case of `CCOCc1cc(F)c(-c2nc(C(=O)Nc3cnccc3[C@H]3C[C@@H](N)[C@](C)(O)[C@@H](C)C3)ccc2F)c(F)c1` [Example 72, N-(4-((1R,3R,4R,5S)-3-amino-4-hydroxy-4,5-dimethylcyclohexyl)pyridin-3-yl)-6-(4-(ethoxymethyl)-2,6-difluorophenyl)-5-fluoropicolinamide], the EC50 in assay [1] worked out at 98 nM. Further, the IC50 against Pim2 kinase came out at 4 nM.
As for `C[C@H]1C[C@@H](c2ccncc2NC(=O)c2nc(-c3cccc(OCC(F)(F)F)n3)ccc2N)C[C@@H](O)[C@]1(C)O` [Example 124, 5-amino-N-(4-((1R,3R,4R,5S)-3,4-dihydroxy-4,5-dimethylcyclohexyl)pyridin-3-yl)-6′-(2,2,2-trifluoroethoxy)-2,2′-bipyridine-6-carboxamide], the IC50 on Pim1 kinase was 21.7 nM; against Pim2 kinase, above 25000 nM; on Pim3 kinase, 736 nM.
For `C[C@H]1C[C@@H](c2ccncc2NC(=O)c2ccc(F)c(-c3c(F)cc(CCO)cc3F)n2)C[C@@H](N)[C@]1(C)O` [Example 1, N-(4-((1R,3R,4R,5S)-3-amino-4-hydroxy-4,5-dimethylcyclohexyl)pyridin-3-yl)-6-(2,6-difluoro-4-(2-hydroxyethyl)phenyl)-5-fluoropicolinamide], the EC50 in assay [1] is 20 nM. Besides, the half-inhibitory concentration (IC50) was 0.07 nM against Pim1 kinase and 3.2 nM at Pim2 kinase.
In the same order, the values of `CC(C)c1cc(F)c(-c2nc(C(=O)Nc3cnccc3[C@H]3C[C@@H](N)[C@](C)(O)[C@@H](C)C3)ccc2F)c(F)c1` [Example 117, N-(4-((1R,3R,4R,5S)-3-amino-4-hydroxy-4,5-dimethylcyclohexyl)pyridin-3-yl)-6-(2,6-difluoro-4-isopropylphenyl)-5-fluoropicolinamide] are 256 nM, 0.02 nM and 1.39 nM.
In the case of `C[C@H]1C[C@@H](c2ccncc2NC(=O)c2ccc(F)c(-c3c(F)cc(C4CCS(=O)(=O)CC4)cc3F)n2)C[C@@H](N)[C@]1(C)O` [Example 119, N-(4-((1R,3R,4R,5S)-3-amino-4-hydroxy-4,5-dimethylcyclohexyl)pyridin-3-yl)-6-(4-(1,1-dioxidotetrahydro-2H-thiopyran-4-yl)-2,6-difluorophenyl)-5-fluoropicolinamide], the concentration for a half-maximal effect (EC50) in assay [1] came out at 578 nM. At Pim2 kinase, this compound showed an IC50 of 1.53 nM.
As to `CC[C@]1(O)[C@H](N)C[C@H](c2ccncc2NC(=O)c2ccc(F)c(-c3c(F)cccc3F)n2)C[C@@H]1C` [Example 11, N-(4-((1R,3R,4R,5S)-3-amino-4-ethyl-4-hydroxy-5-methylcyclohexyl)pyridin-3-yl)-6-(2,6-difluorophenyl)-5-fluoropicolinamide], the IC50 at Pim1 kinase stood at 0.13 nM; on Pim2 kinase, 8.1 nM; against Pim3 kinase it was 1.43 nM.
Take `COc1cc(F)c(-c2nc(C(=O)Nc3cnccc3[C@H]3C[C@@H](C)[C@](C)(O)[C@@H](N)C3)ccc2F)c(F)c1` [Example 16, N-(4-((1S,3S,4S,5R)-3-amino-4-hydroxy-4,5-dimethylcyclohexyl)pyridin-3-yl)-6-(2,6-difluoro-4-methoxyphenyl)-5-fluoropicolinamide]: the figures for the IC50 against Pim1 kinase, against Pim2 kinase and against Pim3 kinase were 4.25 nM, 780 nM and 73 nM, respectively.
